What was measured:
JAK1 (h) = molecular target: T1, JAK1 (h) (Homo sapiens, UniProt P23458); experiment: JAK1 (h) kinase assay; assay type: biochemical; settings: [γ-33P-ATP] 10 μM or KM values; 40 minutes at room temperature
T1 construct: purchased Millipore UK Ltd (assays performed there as a service)
Method in brief: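 Radiometric filter-binding assay: human JAK1 incubated 40 min at room temperature in 20 mM Tris/HCl pH 7.5, 0.2 mM EDTA, 500 μM peptide substrate, 10 mM Mg acetate, with [γ-33P]ATP at 10 μM or KM. Reaction stopped with phosphoric acid; P30 filtermat scintillation counting.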

Aurora-A (h) = molecular target: T2, Aurora-A (h) (Homo sapiens, UniProt O14965); experiment: Aurora-A (h) kinase assay; assay type: biochemical; settings: [γ-33P-ATP] 10 μM or KM values; 40 minutes at room temperature
T2 construct: purchased Millipore UK Ltd (assays performed there as a service)
T2 sequence (O14965 1-403): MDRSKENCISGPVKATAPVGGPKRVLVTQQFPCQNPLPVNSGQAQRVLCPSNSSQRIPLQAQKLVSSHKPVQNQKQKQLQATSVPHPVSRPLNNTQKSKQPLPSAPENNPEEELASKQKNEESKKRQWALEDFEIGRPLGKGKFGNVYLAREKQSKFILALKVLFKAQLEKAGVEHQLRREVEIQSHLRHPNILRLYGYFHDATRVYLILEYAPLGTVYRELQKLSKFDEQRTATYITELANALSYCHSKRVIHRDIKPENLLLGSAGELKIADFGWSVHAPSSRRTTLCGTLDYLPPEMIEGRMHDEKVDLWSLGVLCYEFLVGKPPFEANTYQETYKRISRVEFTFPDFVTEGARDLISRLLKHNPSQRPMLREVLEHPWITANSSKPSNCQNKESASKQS
Protocol: (§1) The above assay procedure can be used to determine the IC50 for inhibition and/or the inhibition constant, Ki. […] The IC50 value is estimated by preparing a 10 point curve using a ½ log dilution series (for example, a typical curve may be prepared using the following compound concentrations: 3 μM, 1 μM, 0.3 μM, 0.1 μM, 0.03 μM, 0.01 μM, 0.003 μM, 0.001 μM, 0.0003 μM and 0 μM).
Aurora-A (h) is incubated with 8 mM MOPS pH 7.0, 0.2 mM EDTA, 200 μM LRRASLG (Kemptide), 10 mM MgAcetate and [γ-^33P-ATP] […] The reaction is initiated by the addition of the MgATP mix. After incubation for 40 minutes at room temperature, the reaction is stopped by the addition of 3% phosphoric acid solution. 10 μL of the reaction is then spotted onto a P30 filtermat and washed three times for 5 minutes in 75 mM phosphoric acid and once in methanol prior to drying and scintillation counting.
(§2) The kinase assays described herein were performed at Millipore UK Ltd, Dundee Technology Park, Dundee DD2 1SW, UK.

Aurora-B (h) = molecular target: T3, Aurora-B (h) (Homo sapiens, UniProt Q96GD4); experiment: Aurora-B (h) kinase assay; assay type: biochemical; settings: [γ-33P-ATP] 10 μM or KM values; 40 minutes at room temperature
T3 construct: purchased Millipore UK Ltd (assays performed there as a service)
Protocol: as §1
Aurora-B (h) is incubated with 8 mM MOPS pH 7.0, 0.2 mM EDTA, 30 μM […], 10 mM MgAcetate and [γ-^33PATP] […] The reaction is initiated by the addition of the MgATP mix. After incubation for 40 minutes at room temperature, the reaction is stopped by the addition of a 3% phosphoric acid solution. 10 μL of the reaction is then spotted onto a P30 filtermat and washed three times for 5 minutes in 75 mM phosphoric acid and once in methanol prior to drying and scintillation counting.
as §2

[1] = Pharmacokinetics after intravenous and oral administration in rats; assay type: in vivo; settings: for Clearance (CL) after iv dosing / AUC(0-t) / half-life / Vd: dose 1 mg/kg (Ex. 9: 0.6, Ex. 18: 0.5, Ex. 50: 0.96 mg/kg), iv dosing; for AUC(0-t) / half-life / Vd / bioavailability: rat, plasma; for Vd: read-out: Vss; for bioavailability: oral (generally 5 or 10 mg/kg) versus iv dosing, read-out: F (oral bioavailability)
Method in brief: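 Rats dosed i.v. (about 0.5, 0.6, 1 or 2 mg/kg) or p.o. (5 or 10 mg/kg) as solution, suspension or capsule. Plasma sampled over 24 h and quantified by LC/MS/MS in MRM mode with ESI.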

T3 sequence (Q96GD4 whole entry): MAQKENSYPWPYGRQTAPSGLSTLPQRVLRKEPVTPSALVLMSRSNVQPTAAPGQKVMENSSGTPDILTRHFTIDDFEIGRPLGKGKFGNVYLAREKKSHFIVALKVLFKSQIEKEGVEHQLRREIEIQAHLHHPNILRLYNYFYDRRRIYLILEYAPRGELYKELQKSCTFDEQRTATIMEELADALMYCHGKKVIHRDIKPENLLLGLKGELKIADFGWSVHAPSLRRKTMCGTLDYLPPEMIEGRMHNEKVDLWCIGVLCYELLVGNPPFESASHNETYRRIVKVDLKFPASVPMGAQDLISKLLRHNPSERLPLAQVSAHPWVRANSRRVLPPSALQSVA
T1 sequence (P23458 whole entry): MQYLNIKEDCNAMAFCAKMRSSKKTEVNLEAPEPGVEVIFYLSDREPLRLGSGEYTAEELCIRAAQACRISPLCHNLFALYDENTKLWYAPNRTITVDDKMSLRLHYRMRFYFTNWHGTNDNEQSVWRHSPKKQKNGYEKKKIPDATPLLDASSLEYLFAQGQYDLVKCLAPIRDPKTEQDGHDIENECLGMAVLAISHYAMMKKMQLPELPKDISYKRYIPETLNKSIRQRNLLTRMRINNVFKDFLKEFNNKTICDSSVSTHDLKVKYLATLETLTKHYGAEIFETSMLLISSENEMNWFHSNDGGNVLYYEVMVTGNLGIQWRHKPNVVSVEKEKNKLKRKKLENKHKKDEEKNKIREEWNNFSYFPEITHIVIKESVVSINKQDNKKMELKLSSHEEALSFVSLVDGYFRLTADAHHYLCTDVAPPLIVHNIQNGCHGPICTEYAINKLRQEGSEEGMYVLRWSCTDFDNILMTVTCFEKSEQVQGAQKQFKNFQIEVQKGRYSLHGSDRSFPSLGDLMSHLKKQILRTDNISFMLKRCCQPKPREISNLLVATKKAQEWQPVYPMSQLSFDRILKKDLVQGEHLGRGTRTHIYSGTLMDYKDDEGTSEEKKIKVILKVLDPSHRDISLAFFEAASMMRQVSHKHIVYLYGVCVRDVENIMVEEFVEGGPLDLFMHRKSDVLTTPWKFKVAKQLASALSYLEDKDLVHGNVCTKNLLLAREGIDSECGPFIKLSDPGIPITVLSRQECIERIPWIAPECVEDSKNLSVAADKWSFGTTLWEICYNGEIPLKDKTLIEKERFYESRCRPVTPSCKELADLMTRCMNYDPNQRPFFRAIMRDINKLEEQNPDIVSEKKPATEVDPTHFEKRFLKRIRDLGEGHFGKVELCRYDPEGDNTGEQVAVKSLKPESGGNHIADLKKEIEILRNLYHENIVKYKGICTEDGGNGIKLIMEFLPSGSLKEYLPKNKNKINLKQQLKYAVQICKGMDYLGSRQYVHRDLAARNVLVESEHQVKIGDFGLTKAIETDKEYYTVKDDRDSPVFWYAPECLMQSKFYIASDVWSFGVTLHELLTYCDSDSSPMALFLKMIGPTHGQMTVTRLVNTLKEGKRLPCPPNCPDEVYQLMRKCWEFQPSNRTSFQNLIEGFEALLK

Row | SMILES | IC50 (JAK1 (h)) [nM] | IC50 (Aurora-A (h)) [nM] | IC50 (Aurora-B (h)) [nM] | Clearance (CL) after iv dosing [1] [mL/min/kg] | AUC(0-t) [1] [ng·h/mL] | half-life [1] [min] | Vd [1] [L/kg] | bioavailability [1] [%]
1 | Cc1cnc2cc(Nc3ncc(Cl)c(NC4CCN(c5ccc(C#N)nn5)CC4)n3)ccn12 [Example 12, 6-(4-((5-chloro-2-((3-methylimidazo[1,2-a]pyridin-7-yl)amino)pyrimidin-4-yl)amino)piperidin-1-yl)pyridazine-3-carbonitrile] | 0.4 | 281 | 115 | – | – | – | – | –
2 | CC(C)(O)Cc1nc2cc(Nc3ncc(Cl)c(NC4CCN(c5ccc(C#N)nn5)CC4)n3)ccn2n1 [Example 77, 6-(4-((5-chloro-2-((2-(2-hydroxy-2-methylpropyl)-[1,2,4]triazolo[1,5-a]pyridin-7-yl)amino)pyrimidin-4-yl)amino)piperidin-1-yl)pyridazine-3-carbonitrile] | 0.7 | 699 | 132 | 151 | 1860 | 50.6 | 0.623 | –
3 | CC(O)Cn1cnc2cc(Nc3ncc(Cl)c(NC4CCN(c5ccc(C#N)cn5)CC4)n3)ccc21 (stereo not shown) [Example 61, 6-(4-((5-chloro-2-((1-(2-hydroxypropyl)-1H-benzo[d]imidazol-5-yl)amino)pyrimidin-4-yl)amino)piperidin-1-yl)nicotinonitrile] | < 0.3 | 113 | 50 | – | – | – | – | –
4 | CC(C)(O)c1nc2cc(Nc3ncc(Cl)c(NC4CCN(c5ccc(C#N)nn5)CC4)n3)ccn2n1 [Example 55, 6-(4-((5-chloro-2-((2-(2-hydroxypropan-2-yl)-[1,2,4]triazolo[1,5-a]pyridin-7-yl)amino)pyrimidin-4-yl)amino)piperidin-1-yl)pyridazine-3-carbonitrile] | 0.9 | > 300 | 200 | – | – | – | – | –
5 | N#Cc1ccc(N2CCC(Nc3nc(Nc4ccc5c(c4)nnn5CC4CC4)ncc3Cl)CC2)nc1 [Example 60, 6-(4-((5-chloro-2-((1-(cyclopropylmethyl)-1H-benzo[d][1,2,3]triazol-5-yl)amino)pyrimidin-4-yl)amino)piperidin-1-yl)nicotinonitrile] | 0.4 | 216 | 216 | – | – | – | – | –
6 | CC(C)(O)Cc1nc2cc(Nc3ncc(Cl)c(NC4CCN(c5ccc(C#N)cn5)CC4)n3)ccn2n1 [Example 78, 6-(4-((5-chloro-2-((2-(2-hydroxy-2-methylpropyl)-[1,2,4]triazolo[1,5-a]pyridin-7-yl)amino)pyrimidin-4-yl)amino)piperidin-1-yl)nicotinonitrile] | 1 | 561 | 185 | 187 | 1490 | 59.2 | 0.795 | 84.8
7 | CC(C)(O)Cc1nc2ccc(Nc3ncc(Cl)c(NC4CCN(c5ccc(C#N)cn5)CC4)n3)cn2n1 [Example 67, 6-(4-((5-chloro-2-((2-(2-hydroxy-2-methylpropyl)-[1,2,4]triazolo[1,5-a]pyridin-6-yl)amino)pyrimidin-4-yl)amino)piperidin-1-yl)nicotinonitrile] | 0.6 | 987 | 793 | 11.2 | 1470 | 87 | 1.25 | 49.7
8 | CC(C)(O)Cn1nnc2cc(Nc3ncc(Cl)c(NC4CCN(c5ccc(C#N)cn5)CC4)n3)ccc21 [Example 69, 6-(4-((5-chloro-2-((1-(2-hydroxy-2-methylpropyl)-1H-benzo[d][1,2,3]triazol-5-yl)amino)pyrimidin-4-yl)amino)piperidin-1-yl)nicotinonitrile] | 0.5 | 40 | 45 | 22.2 | 752 | 56.4 | 1.7 | 69.8

— patent US10683297B2 (Sunshine Lake Pharma Co., Ltd., priority 2017, dated 2020)
